Measured values reported in patent US20240076347A1, “METHODS FOR PREVENTING FUNGAL INFECTIONS” (Cidara Therapeutics, Inc., priority 2016, published 2024).
Where two headings read alike, the source gives them in different places. Numbered stars: 1 amine (or outer) side, 2 acyl side, 3 side chain; on linkers, the order of the positions; unused ones are H or OH. Bridge positions count the residues as written; N and C are the ends. Square brackets hold non-standard residues; d marks the D form. Peptide text beside a SMILES is read from it. * marks the point of attachment. ξ: configuration not given here. Orn(4R-OH,5R-OCH2CH2NMe3+) = C[N+](C)(C)CCO[C@@H](N[*:3])[C@H](O)C[C@H](N[*:1])C(=O)[*:2]; pTerphenylCO(4''-OnC5H11) = CCCCCOc1ccc(-c2ccc(-c3ccc(C(=O)*)cc3)cc2)cc1; hTyr(3S-OH,4S-OH) = N[C@H](C(=O)O)[C@H](O)[C@@H](O)c1ccc(O)cc1; X1 = C[C@H]1CN([*:1])C(C(=O)[*:2])C1O; Hyp = O=C(O)[C@@H]1C[C@@H](O)CN1; ξT = CC(O)C(N)C(=O)O

Tests used:
[1] = Monkey pharmacokinetics, SC and IV administration; format: in vivo, cynomolgus monkeys; conditions: for half-life / AUC(0-t) / Cmax / Tmax / AUC(0-inf): cynomolgus monkey, plasma
Description: Therefore, only local tolerability (and PK) of CD101 by SC administration required evaluation. […] Plasma concentrations were then quantified by liquid chromatography with tandem mass spectrometric detection (LC-MS/MS). Bioavailability from SC dosing was calculated by comparing the calculated area under the concentration-time profile (AUC) from SC against the AUC from IV administration of the same dose.

C. parapsilosis = test: In vitro susceptibility testing (CLSI M27-A3); format: cell-based, Candida parapsilosis; conditions: Lodderomyces parapsilosis, 24 h
Description: Strains. Ten clinical Candida strains were used for the in vivo treatment studies, including four C. albicans, three C. glabrata, and three C. parapsilosis strains (Table 18). This group was selected to encompass phenotypic variability in susceptibility to triazoles and echinocandins and based on similar fitness in the animal model as defined by the amount of growth in control animals over 24 h. The organisms were maintained, grown, and quantified on Sabouraud's dextrose agar (SDA) plates.
In vitro susceptibility testing. All isolates were tested in accordance with the standards in CLSI document M27-A3. The MICs were determined visually after 24 h of incubation as the lowest concentration of drug that causes a significant diminution (≥50%) of growth compared to controls. MICs were determined on three separate occasions in duplicate.

[2] = Pharmacokinetic profile in mice after subcutaneous dose; format: in vivo; conditions: mouse, plasma, 10 mg/kg SC
[3] = Plasma protein binding by ultracentrifugation; format: in vitro ADME; conditions: mouse plasma; read-out: percent of bound CD101, mean (protein binding) (converted)
Description: (§1) Concentrations in plasma ranging from 7 to 60 μg/mL were tested and resulting samples were analyzed by LC-MS/MS.

human plasma proteins = test: Plasma protein binding by ultracentrifugation; format: in vitro ADME
Description: as §1

[4] = Early pharmacokinetic studies, SC tolerability; format: in vivo, rats and monkeys; conditions: lower doses (≤5 mg/kg)
C. albicans biofilms = test: Time lapse microscopy of biofilm formation; format: cell-based, Candida albicans; conditions: up to 16 h
From the text: The effective CD101 concentration obtained from the above experiments was used to monitor its effect on biofilm formation in real time using TLM, which involves capturing real-time images of a single frame at specific time intervals, allowing temporal monitoring of the interactions occurring between the drug and Candida biofilms. Captured images were combined in a time sequence, resulting in an animation depicting the sequence of events that occurred with the passage of time. Briefly, the discs with C. albicans (adhered for 90 min as above) were placed in a 35-mm-diameter glass-bottom Petri dish (MiTek Corp., Ashland, MA). […] Phase contrast images for this interaction were captured immediately from 0 h and followed up to 16-17 h on a Leica DMI 6000 B inverted microscope connected to a Retiga EXi Aqua camera (Q-imaging Vancouver British Columbia). To determine the structural changes in the maturing biofilm, both acquisition and analysis of a series of horizontal (xy) optical sections of the biofilm was done using Metamorph Imaging software (Molecular Devices, Downington, PA). Disc incubated with media alone was used as control.

[5] = system: C. albicans SC-5314 biofilms; test: Mature phase biofilms (treatment) on silicone elastomer discs; format: cell-based, Candida albicans
Description: Biofilms were formed on silicone elastomer (SE) discs using a catheter-associated-biofilm model (Chandra et al., Nature Protocols 3:1909, 2008; Chandra et al., J. […] Chandra et al., J. Dental Research 80: 903, 2001). For evaluation of activity against adhesion phase biofilms (prevention), Candida cells were adhered to catheter discs for 90 min. […] Discs incubated with fluconazole or media alone were used as controls in all experiments. […] Chandra et al., J. […] Chandra et al., J. Dental Research 80: 903, 2001). Following incubation with drugs, discs were transferred to fresh plates containing phosphate buffered saline with XTT and menadione, incubated for 3 h at 37° C. and optical density was read at 492 nm. Separate batches of biofilms were stained with fluorescent dyes (FUN1™, CONA) and observed under Confocal Scanning Laser Microscope (CSLM) to evaluate biofilm architecture and thickness (Chandra et al., Nature Protocols 3:1909, 2008; Chandra et al., J. […] Statistical analyses for all data were performed using GraphPad Prism 6 software. Drug treated groups were compared to control untreated groups using unpaired t-tests.

[6] = system: Candida albicans ATCC SC5314; test: Prophylaxis, neutropenic ICR mouse candidiasis model, kidney CFU; format: in vivo
Description: Candidiasis model: ICR mice (5/group) were rendered neutropenic by cyclophosphamide on Day −4 (150 mg/kg) and Day −1 (100 mg/kg), then challenged (Day 0) with Candida albicans ATCC SC5314 via IV (100 μL, […] CFU/mouse). Prior to challenge, mice were given one SC dose (5, 10, or 20 mg/kg) of CD101 on Day −5, Day −3, or Day −1. At 24 hours post-challenge, kidneys were removed for CFU enumeration.

[7] = both sexes, sc, Subcutaneous, 30 mg/kg
[8] = female, animal 9707, F, 30 mg/kg SC single dose
[9] = male, animal 9697, M, 30 mg/kg SC single dose

In the case of `CCCCCOc1ccc(-c2ccc(-c3ccc(C(=O)N[C@H]4C[C@@H](O)[C@@H](OCC[N+](C)(C)C)NC(=O)C5C(O)[C@@H](C)CN5C(=O)[C@H]([C@@H](C)O)NC(=O)[C@H]([C@H](O)[C@@H](O)c5ccc(O)cc5)NC(=O)[C@@H]5C[C@@H](O)CN5C(=O)C(C(C)O)NC4=O)cc3)cc2)cc1` (stereo partly drawn) [CD101] ({pTerphenylCO(4''-OnC5H11)}-[Orn(4R-OH,5R-OCH2CH2NMe3+)][ξT][Hyp][hTyr(3S-OH,4S-OH)]T[X1]; lactam 1-C), the “time at which maximum plasma concentration was reached” value ([1]; 30 mg/kg SC) is reported as greater than 24 h, the “bioavailability (SC vs IV total exposure over 10 days)” value ([1]; 30 mg/kg SC vs IV) is reported as 80% and the half-life ([1]; both sexes, sc, 30 mg/kg, Subcutaneous) is reported as roughly 124 h. It also gave an AUC(0-t) [1, 7] of 2460 µg·h/mL, a Cmax [1, 7] of 13400 ng/mL and a Tmax [1, 7] of 72 h. It also gave an AUC(0-inf) ([1]; both sexes, sc, Subcutaneous, 30 mg/kg, read-out: AUCinf) of 3520 µg·h/mL, an AUC(0-t) ([1]; iv, 30 mg/kg) of 3140 µg·h/mL and a Cmax ([1]; iv, 30 mg/kg) of 112000 ng/mL. For the same compound, the Tmax ([1]; iv, 30 mg/kg) was 1 h, the half-life ([1]; iv, 30 mg/kg) was 49.7 h and the AUC(0-inf) ([1]; iv, 30 mg/kg, read-out: AUCinf) was 3340 µg·h/mL. The half-life ([1]; female, sc, 30 mg/kg, animal 9707, F, 30 mg/kg SC single dose) was 171 h, the AUC(0-t) [1, 8] was 2180 µg·h/mL and the Cmax [1, 8] was 10900 ng/mL. For the same compound, the Tmax [1, 8] was 48 h, the AUC(0-inf) ([1]; female, animal 9707, F, 30 mg/kg SC single dose, read-out: AUCINF_obs) was 3760 µg·h/mL and the half-life ([1]; male, sc, 30 mg/kg, animal 9697, M, 30 mg/kg SC single dose) was 76.2 h. It also gave an AUC(0-t) [1, 9] of 2740 µg·h/mL, a Cmax [1, 9] of 15900 ng/mL and a Tmax [1, 9] of 96 h. It also gave an AUC(0-inf) ([1]; male, animal 9697, M, 30 mg/kg SC single dose, read-out: AUCINF_obs) of 3280 µg·h/mL, an MIC (C. parapsilosis; strain 20423.072) of 0.5 µg/mL and an MIC (C. parapsilosis; strain 20477.048) of 1 µg/mL. It also gave an MIC (C. parapsilosis; strain 20519.069) of 1 µg/mL, a half-life [2] of roughly 25 h and a bioavailability ([2]; read-out: absolute bioavailability) of roughly 50%. For the same compound, the fraction unbound at 2.5 hr [3] was 0.008, the “percent of bound CD101, mean” value (human plasma proteins; human plasma, 7 to 60 μg/mL) was 97.4% and the “higher free fraction in human vs mouse plasma” value (human plasma proteins; human vs mouse plasma) was roughly 3 ×. The “tolerability of subcutaneous administration” value [4] was “well-tolerated”, the “biofilm formation in real time” value (C. albicans biofilms; 0.25 μg/ml added to 3 h formed biofilms) was “remained stunted and failed to grow into mature biofilms” and the “biofilm formation in real time” value (C. albicans biofilms; 0.25 μg/ml added to cells adhered 90 min) was “only adhered cells with stunted growth, which failed to grow into mature biofilms”. The “biofilm architecture (CSLM)” value ([5]; 0.25 and 1 μg/ml) was “eradicated and showed bulged, deformed/broken cells”, the “biofilm metabolic activity (XTT)” value ([5]; 0.25 and 1 μg/ml, 24 h, vs untreated, P<0.05) was “significantly less metabolic activity” and the thickness of biofilms ([5]; CD101 exposed, untreated control 43 μm, P<0.05) was 24 μm. For the same compound, the “kidney CFU” value ([6]; 10 mg/kg SC single dose at Day −3 and Day −1, 24 h post-challenge, all animals) was “Complete clearance”, the “kidney CFU” value ([6]; 20 mg/kg SC on Day −3, all but one animal) was “Complete clearance” and the “kidney CFU” value ([6]; 20 mg/kg SC on Day −5, −3 or −1) was “reduced CFU burden regardless of prophylactic treatment day”. The “kidney CFU” value ([6]; 5 or 10 mg/kg SC at Day −3 and Day −1) was “significant decrease in CFU”.
